Measured values: ChEMBL document CHEMBL5257106, “Design, synthesis, and biological evaluation of novel HDAC inhibitors with a 3-(benzazol-2-yl)quinoxaline framework” (Bioorg Med Chem Lett, 2023)
Activity calls are given as the source filed them. The calls are words filed in the database; no cut-off is given here.

Assays:
MCF7 = assay: Antiproliferative activity against human MCF7 cells assessed as inhibition of cell growth by MTT assay; format: functional, cell-based
HCT-116 [1] = assay: Antiproliferative activity against human HCT-116 cells assessed as inhibition of cell growth by MTT assay; format: functional, cell-based
[2] = Cytotoxicity against HUVEC cells assessed as inhibition of cell growth by MTT assay; details: human
HCT-116 [3] = assay: Potency index, ratio of SAHA IC50 to test compound IC50 for antiproliferative activity against human HCT-116 cells assessed as inhibition of cell growth by MTT assay; format: functional
K562 [4] = assay: Antiproliferative activity against human K562 cells assessed as inhibition of cell growth by MTT assay; format: functional, cell-based
RS4-11 = assay: Antiproliferative activity against human RS4-11 cells assessed as inhibition of cell growth by MTT assay; format: functional, cell-based
HL-60 [5] = assay: Antiproliferative activity against human HL-60 cells assessed as inhibition of cell growth by MTT assay; format: functional, cell-based
K562 [6] = assay: Potency index, ratio of SAHA IC50 to test compound IC50 for antiproliferative activity against human K562 cells assessed as inhibition of cell growth by MTT assay; format: functional
HL-60 [7] = assay: Potency index, ratio of SAHA IC50 to test compound IC50 for antiproliferative activity against human HL-60 cells assessed as inhibition of cell growth by MTT assay; format: functional
Histone deacetylase 1 = Histone deacetylase 1 (Homo sapiens, UniProt Q13547); assay: Inhibition of HDAC1 (unknown origin)
Histone deacetylase 11 = target: T1, Histone deacetylase 11 (Homo sapiens, UniProt Q96DB2); assay: Inhibition of HDAC11 (unknown origin)
T1 sequence (Q96DB2 whole entry): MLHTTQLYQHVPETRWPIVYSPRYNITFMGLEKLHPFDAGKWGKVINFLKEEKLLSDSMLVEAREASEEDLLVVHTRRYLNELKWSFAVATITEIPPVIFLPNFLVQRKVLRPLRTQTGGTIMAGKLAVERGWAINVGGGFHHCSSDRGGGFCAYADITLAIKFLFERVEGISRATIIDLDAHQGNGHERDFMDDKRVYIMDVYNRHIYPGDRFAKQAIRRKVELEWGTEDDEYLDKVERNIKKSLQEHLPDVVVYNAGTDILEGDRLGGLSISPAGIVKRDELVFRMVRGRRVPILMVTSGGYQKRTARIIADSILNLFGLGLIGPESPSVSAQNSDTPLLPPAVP

[8] = target: T2, Histone deacetylase (Homo sapiens) (UniProt Q13547+O15379+Q9UBN7+Q92769+Q9UQL6+Q8WUI4+Q9BY41+Q96DB2+P56524+Q9UKV0+Q969S8); assay: Inhibition of HDAC in human HCT-116 cells assessed as increase in histone H3 acetylation incubated for 24 hrs by Western blot analysis; format: cell-based; details: dose 0.5-1 µM
[9] = target: T2, Histone deacetylase (Homo sapiens); assay: Inhibition of HDAC in human HCT-116 cells assessed as increase in alpha tubulin acetylation incubated for 24 hrs by Western blot analysis; format: cell-based; details: dose 0.5-1 µM
[10] = target: T3, DNA topoisomerase 1 (Homo sapiens) (UniProt P11387); assay: Inhibition of topoisomerase 1 in human HCT-116 cells assessed as suppression of Topo 1 protein expression incubated for 24 hrs by Western blot analysis; format: cell-based; details: dose 0.5-1 µM
T3 sequence (whole entry): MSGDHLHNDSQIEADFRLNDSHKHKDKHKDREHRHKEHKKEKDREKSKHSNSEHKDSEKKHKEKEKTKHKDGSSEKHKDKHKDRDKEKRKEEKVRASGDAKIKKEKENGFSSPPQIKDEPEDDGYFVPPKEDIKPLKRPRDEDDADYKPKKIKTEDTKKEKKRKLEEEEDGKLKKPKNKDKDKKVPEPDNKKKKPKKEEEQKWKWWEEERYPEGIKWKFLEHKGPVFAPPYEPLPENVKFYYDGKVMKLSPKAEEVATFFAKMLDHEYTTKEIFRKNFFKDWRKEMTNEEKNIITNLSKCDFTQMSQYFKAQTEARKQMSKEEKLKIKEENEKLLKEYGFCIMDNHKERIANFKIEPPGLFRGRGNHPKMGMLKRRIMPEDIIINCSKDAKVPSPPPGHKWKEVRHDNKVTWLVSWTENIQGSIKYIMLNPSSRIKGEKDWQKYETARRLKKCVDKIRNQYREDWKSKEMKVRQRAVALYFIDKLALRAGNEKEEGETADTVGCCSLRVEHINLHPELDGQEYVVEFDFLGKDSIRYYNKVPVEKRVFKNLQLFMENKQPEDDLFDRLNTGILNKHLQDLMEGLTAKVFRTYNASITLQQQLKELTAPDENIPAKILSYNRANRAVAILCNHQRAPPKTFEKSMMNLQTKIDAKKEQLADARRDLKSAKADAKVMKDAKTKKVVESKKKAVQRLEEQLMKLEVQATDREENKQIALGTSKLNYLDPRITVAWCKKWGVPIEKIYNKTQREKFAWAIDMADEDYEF

[11] = target: T3, DNA topoisomerase 1 (Homo sapiens); assay: Inhibition of topoisomerase 1 (unknown origin) assessed as effect on DNA by gel electrophoresis
[12] = target: T3, DNA topoisomerase 1 (Homo sapiens); assay: Inhibition of topoisomerase 1 (unknown origin) mediated DNA relaxation assessed as delay in pBR322 DNA migration by gel electrophoresis assay
HCT-116 [13] = assay: Induction of apoptosis in human HCT-116 cells assessed as early apoptotic cells at 1 uM incubated for 24 hrs by Annexin V-FITC/PI staining based flow cytometry analysis (reference value: 6.50%); format: functional
HCT-116 [14] = assay: Induction of apoptosis in human HCT-116 cells assessed as late apoptotic cells at 1 uM incubated for 24 hrs by Annexin V-FITC/PI staining based flow cytometry analysis (reference value: 0.323%); format: functional
HCT-116 [15] = assay: Induction of apoptosis in human HCT-116 cells assessed as necrotic cells at 1 uM incubated for 24 hrs by Annexin V-FITC/PI staining based flow cytometry analysis (reference value: 0.00%); format: functional
HCT-116 [16] = assay: Induction of apoptosis in human HCT-116 cells assessed as early apoptotic cells at 0.5 uM incubated for 24 hrs by Annexin V-FITC/PI staining based flow cytometry analysis (reference value: 6.50%); format: functional
HCT-116 [17] = assay: Induction of apoptosis in human HCT-116 cells assessed as total apoptotic cells at 1 uM incubated for 24 hrs by Annexin V-FITC/PI staining based flow cytometry analysis (reference value: 6.823%); format: functional
HCT-116 [18] = assay: Induction of apoptosis in human HCT-116 cells assessed as decrease in Bcl-2 protein expression incubated for 24 hrs by Western blot analysis; format: functional, cell-based; details: dose 0.5-1 µM
HCT-116 [19] = assay: Induction of apoptosis in human HCT-116 cells assessed as upregulation of cleaved PARP expression at 0.5 to 1 uM incubated for 24 hrs by Western blot analysis; format: functional, cell-based; details: dose 0.5-1 µM
HCT-116 [20] = assay: Induction of cell cycle arrest in human HCT-116 assessed as S phase cells at 0.5 uM incubated for 48 hrs by flow cytometric analysis (reference value: 12.79%); format: functional
HCT-116 [21] = assay: Induction of cell cycle arrest in human HCT-116 assessed as decrease in G0/G1 phase cells at 1 uM incubated for 48 hrs by flow cytometric analysis (reference value: 63.51%); format: functional; parameters: scale not given: the % may be the effect or the level left
HCT-116 [22] = assay: Inhibition of cell migration in human HCT-116 cells measured upto 12 hrs by wound healing assay; format: functional, cell-based; details: dose 0.5-1 µM

Histone deacetylase 1, sequence (Q13547 whole entry): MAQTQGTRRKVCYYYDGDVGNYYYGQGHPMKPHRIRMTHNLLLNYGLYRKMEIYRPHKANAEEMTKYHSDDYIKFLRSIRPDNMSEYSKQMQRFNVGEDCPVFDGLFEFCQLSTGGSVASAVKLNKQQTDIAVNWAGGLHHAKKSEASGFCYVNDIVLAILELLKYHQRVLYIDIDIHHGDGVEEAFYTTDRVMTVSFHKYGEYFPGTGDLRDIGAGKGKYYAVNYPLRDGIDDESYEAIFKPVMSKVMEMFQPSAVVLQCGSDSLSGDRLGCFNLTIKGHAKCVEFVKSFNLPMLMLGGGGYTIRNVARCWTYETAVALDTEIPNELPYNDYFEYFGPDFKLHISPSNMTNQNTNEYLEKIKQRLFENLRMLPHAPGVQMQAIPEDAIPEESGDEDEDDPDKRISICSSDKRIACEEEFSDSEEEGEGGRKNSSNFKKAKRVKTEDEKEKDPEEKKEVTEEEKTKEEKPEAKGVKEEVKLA

Compound: O=C(CCCCCCNc1nc2ccccc2nc1-c1nc2ccccc2o1)NO
- IC50 (MCF7): 1.27 µM
- IC50 (HCT-116 [1]): 0.91 µM
- IC50 [2]: 19.1 µM
- Ratio IC50 (HCT-116 [3]): 6
- IC50 (K562 [4]): 0.89 µM
- IC50 (RS4-11): 0.89 µM
- IC50 (HL-60 [5]): 0.89 µM
- Ratio IC50 (K562 [6]): 2
- Ratio IC50 (HL-60 [7]): 2
- IC50 (Histone deacetylase 1): 0.011 µM
- IC50 (Histone deacetylase 11): 0.11 µM
- inhibition [8]: Dose-Dependent Effect
- inhibition [9]: Dose-Dependent Effect
- inhibition [10]: Dose-Dependent Effect
- inhibition [11]: inactive
- inhibition [12]: Active
- Activity (HCT-116 [13]): 34.5%
- Activity (HCT-116 [14]): 17.3%
- Activity (HCT-116 [15]): 0.103%
- Activity (HCT-116 [16]): 28.1%
- Activity (HCT-116 [17]): 51.8%
- Activity (HCT-116 [18]): Dose-Dependent Effect
- Activity (HCT-116 [19]): Active
- Activity (HCT-116 [20]): 11.65%
- Activity (HCT-116 [21]): 46.57%
- inhibition (HCT-116 [22]): Dose-Dependent Effect
